Results as given in US20110288123A1, “FORMULATIONS FOR THE TREATMENT OF ACUTE HERPES ZOSTER PAIN” (priority 2008, published 2011).

Tests used:
[1] = Stinging test (VAS) on tape-stripped forearm skin of subjects; format: in vivo, human; conditions: for Subjective Stinging Score, mean: 100 mm VAS, n=10, abraded skin
Text: Topical formulations, particularly those that are to be applied to diseased or damaged skin (e.g. cracks, fissures, open blisters, rash, and the like) may produce the sensory perception of stinging, a distinct discomfort to the user. A stinging test can be used to assess whether the novel topical formulations described herein produce a sensory perception of stinging.
For example, the study is designed to assess the sting potential of four topical formulations using a modification of a lactic acid sting assessment method. The test formulations are evaluated on skin that has been partially damaged (e.g. partial removal of the stratum corneum by tape stripping) to simulate diseased skin. Both a positive control (70% isopropyl alcohol) and a negative control (water) can be included to ascertain each subject's ability to sense the stinging sensation.
After providing informed consent, each subject receives a single dose exposure of 5 μL/cm^2 (40 μL/site) of a test formulation to an 8 cm^2 (2 cm×4 cm) surface abraded test site on their forearms (3 sites/arm), for a 10 minute duration. Skin abrasion is produced by repetitive tape stripping until a TEWL (Trans-Epidermal Water-Loss) measurement of 30 g/m^2/hr, or greater, has been achieved (e.g. tape stripping will be performed 15 times followed by a TEWL measurement. If the TEWL is <30 g/m^2/hr, 10 more strips will be collected, if TEWL is still <30 g/m^2/hr, 10 more tape strip will be collected).
Subjects rated stinging, pain and discomfort at the site using a 100 mm visual analogue scale (VAS), one for each individual sensation, immediately after dosing and at 2, 5 and 10 minutes following topical application. Subjects provided a description of the sensations experienced following application of each test article. The subjects responses, measured in mm, were tabulated for each post-dosing assessment for each test sited.

[2] = Crystallization of lidocaine in formulation with time; format: physicochemical; conditions: lidocaine base formulation; water concentration greater than about 40% w/w
Text: In this experiment, the water concentration in L504 was maximized in order to develop a more benign vehicle with reduced chance of irritation.

Row | Compound | Subjective Stinging Score, mean ([1]; 2 Minute after application) | Subjective Stinging Score, mean ([1]; 5 Minute after application) | Subjective Stinging Score, mean ([1]; 10 Minute after application) | Subjective Stinging Score, mean ([1]; Immediate after application) | Subjective Stinging Score, mean ([1]; Maximum score) | stinging response in the stinging test (in words) ([1]; comparison with water application or LidHCL115a base formulation) | crystallization of lidocaine in solution with time [2]
1 | CC(C)O [70% Isopropanol, Isopropyl Alcohol] | 3.31 mm | 1.87 mm | 1.00 mm | 10.84 mm | 12.13 mm | immediate stinging response is severe, followed by a rapid fall in pain | 
2 | CCN(CC)CC(=O)Nc1c(C)cccc1C [lidocaine, Lidocaine base] |  |  |  |  |  |  | tended to crystallized with time
